In patent publication US10335363B2, “Skin care composition and method of making the same” (The Procter & Gamble Company, priority 2015, dated 2019):

System: interleukin-18 (IL-18)
Test: Skin sensitization potential (IL-18 production in HEK)
Format: cell-based, human
Conditions: fold change of IL-18 vs vehicle control, HEK lysates, 16 hours
Description: It is possible for a material to not be cytotoxic, and yet be unsafe due to provoking an allergic reaction upon skin contact. Typically, initial exposure to an allergen sensitizes the immune system, and following exposures cause an allergic response. Recent progress in understanding the mechanisms of skin sensitization identified interleukin-18 (IL-18) production in normal human epidermal keratinocytes (HEK) as a useful biomarker for skin contact sensitization (Corsini, et al., “Use of IL-18 Production In a Human Keratinocyte Cell Line to Discriminate Contact Sensitizers from Irritants and Low Molecular Weight Respiratory Allergens.” Toxicol In Vitro. 2009 August; 23(5):789-96; Teunis, et al., “Transfer of a Two-tiered Keratinocyte Assay: IL-18 Production by NCTC2544 to Determine the Skin Sensitizing Capacity and Epidermal Equivalent Assay to Determine Sensitizer Potency.” Toxicol In Vitro. 2013 April; 27(3):1135-50). […] Thus, IL-18 production in HEK was evaluated to determine sensitization potential.
Normal human adult epidermal keratinocytes (HEK) were cultured as described above for the cytoxicity evaluation. […] The cell lysates were collected, and IL-18 was quantified using Human IL-18 ELISA Kit (Catalog #7620, produced by MBL International Co., Woburn, Mass., USA). […] Fold changes of IL-18 levels between test articles and respective vehicle controls were calculated and compared to pPD. […]

Nc1ccc(N)cc1 [benchmark sensitizer, para-phenylenediamine]
IL18 Maximum fold: 7.8 fold)
